Measured values taken from article PMC10143232, “Dihydropyrimidone Derivatives as Thymidine Phosphorylase Inhibitors: Inhibition Kinetics, Cytotoxicity, and Molecular Docking” (Molecules, 2023).
Entries after “also recorded” stand apart in the source; their conditions may differ.

How the values were obtained:
[1] = biological target: T1, Thymidine phosphorylase (TP) (Escherichia coli, UniProt P07650); assay: Thymidine phosphorylase inhibition assay (spectrophotometric, 290 nm); type: biochemical, E. coli; conditions: for inhibition at 500 µM: pH 7, E. coli TP, test compound 10 µL of 0.5 mM in 200 µL, thymidine substrate, 30 °C, pH 7.0, read-out: Thymidine Phosphorylase Inhibitory Activity % Inhibition; for IC50: E. coli TP, n = 3, NA: not active, read-out: Thymidine Phosphorylase Inhibitory Activity IC50 ± SEM
T1 construct: purchased Sigma Aldrich, USA
T1 sequence (P07650 whole entry): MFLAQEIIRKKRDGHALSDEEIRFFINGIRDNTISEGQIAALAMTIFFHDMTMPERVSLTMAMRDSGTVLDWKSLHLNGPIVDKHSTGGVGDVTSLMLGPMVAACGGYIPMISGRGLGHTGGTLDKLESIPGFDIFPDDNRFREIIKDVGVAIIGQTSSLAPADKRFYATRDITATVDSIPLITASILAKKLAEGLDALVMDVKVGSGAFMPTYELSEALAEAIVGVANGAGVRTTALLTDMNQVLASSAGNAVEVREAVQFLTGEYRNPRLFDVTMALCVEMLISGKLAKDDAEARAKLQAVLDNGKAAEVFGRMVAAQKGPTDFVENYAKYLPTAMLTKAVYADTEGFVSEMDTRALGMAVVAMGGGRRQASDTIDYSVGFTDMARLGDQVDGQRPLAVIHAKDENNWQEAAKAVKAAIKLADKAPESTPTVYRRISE
Protocol: Thymidine phosphorylase (source: E. coli, EC Number 2.4.2.4), thymidine (substrate), and potassium phosphate monobasic (as buffer) were acquired from Sigma Aldrich, USA. […] Dimethylsulfoxide (DMSO), used as a solvent, was obtained from Fisher Scientific, Schwerte, Germany.
Reaction was performed in 96-well plates and in triplicates. The 200 µL reaction mixture was comprised of 10 µL of the test compound (0.5 mM; dissolved in DMSO), 150 µL of potassium phosphate buffer (pH 7.0, 50 mM), and 20 µL of TP enzyme (0.058 unit/well). The 96-well plate containing all these reagents was then incubated at 30 °C for 10 min.
SoftMax Pro 4.8 software (Molecular Devices, San Jose, CA, USA) was used to analyse the results.
(§1) EZ-FIT, enzyme kinetics software (Perrella Scientific, Inc., Amherst, GA, USA) was used to calculate the IC50 values. In order to analyse the kinetic parameter, Grafit version 7.0 (Erithacus Software Ltd., Horley, UK) was used.

[2] = biological target: T1, Thymidine phosphorylase (TP); assay: Mechanistic (kinetic) studies of TP inhibition; type: biochemical; conditions: E. coli TP; for Type of Inhibition: Lineweaver–Burk, Dixon plots; for Ki: inhibitor 200–500 µM, thymidine 0.1875–1.5 mM, read-out: Ki ± SEM
Excerpt: Kinetic studies are used for the investigation of chemical reactions in terms of their reaction rates, reaction mechanisms, and the factors that affect these parameters. Herein, it is used determine the type/mechanism of inhibition of dihydropyrimidone derivatives.
as §1

MTT cytotoxicity assay = type: cell-based; conditions: 3T3 mouse fibroblast cells, 48 h, test compounds 1 to 30 µM, NC: non-cytotoxic, read-out: Cytotoxicity Studies Cell Viability (%)
Protocol: (§2) Cytotoxicity of active compounds were evaluated employing a standard MTT calorimetric assay. Mouse fibroblast (3T3 cell line) acquired from American Type Culture Collection (ATCC), Virginia, USA, was cultured in DMEM (Dulbecco’s modified eagle medium). In total, 5% FBS (fetal bovine serum), penicillin (100 IU/mL), and streptomycin ([…]) were then added to the medium in […] flasks, and kept in a CO2 incubator at 37 °C. The harvested cell was then diluted with a specific medium. Haemocytometer was used for the quantification of cells. After that, the culture of cell having concentration of 5x104 (cells/mL) was prepared, inoculated into 96-well plates (100 µL/well), and then incubated overnight. After incubation, the old medium was removed, and fresh medium (200 µL) was added. Then different concentrations of test compounds (ranging from 1 to 30 µM) were added. After incubation of 48 h, each well received 200 µL of MTT dye (0.5 mg/mL), and further incubated for a duration of 4 h. After 4 h, 100 µL of DMSO was introduced into each well of the 96-well plate. The reduction of MTT to formazan was measured by recording absorbance at 540 nm with the help of a microplate reader (SpectraMax 384, Molecular Devices, San Jose, CA, USA).

[3] = test system: 3T3 (mouse fibroblast) cell line; assay: MTT cytotoxicity assay; type: cell-based
Protocol: as §2

E. coli TP = test system: E. coli TP; design: method as in earlier work; conditions: read-out: 50% inhibitory concentration (IC50); purified E. coli TP; conversion of dThd to Thy; ref [5]; cited from earlier work

| SMILES | inhibition at 500 µM [1] | Type of Inhibition [2] | IC50 [1] | Ki [2] | viability at 48 h (MTT cytotoxicity assay) | Cytotoxicity against 3T3 cells (in words) [3] | IC50 (E. coli TP) |
| --- | --- | --- | --- | --- | --- | --- | --- |
| O=c1[nH]c(=O)c2cc[nH]c2[nH]1 [7-Deazaxanthine, reference compound] | 82% | Non-Competitive |  |  |  |  |  |
| COC(=O)C1=C(C)NC(=O)NC1c1ccccc1 (stereo not drawn) [Compound 1, Methyl 6-methyl-2-oxo-4-phenyl-1,2,3,4-tetrahydropyrimidine-5-carboxylate] | 84% | Non-Competitive | 314.3 ± 0.9 µM | 326.3 ± 0.002 µM | 57% | non-cytotoxic; also recorded: non-toxic |  |
| COC(=O)C1=C(C)NC(=O)NC1c1ccc([N+](=O)[O-])cc1 (stereo not drawn) [Compound 12, Methyl 6-methyl-4-(4-nitrophenyl)-2-oxo-1,2,3,4-tetrahydropyrimidine-5-carboxylate] | 91.5% | Non-Competitive | 303.5 ± 0.4 µM | 297.6 ± 0.006 µM | 57% | non-cytotoxic; also recorded: non-toxic |  |
| COC(=O)C1=C(C)NC(=O)NC1c1ccc(N(C)C)cc1 (stereo not drawn) [Compound 26, Methyl 4-(4-(dimethylamino)phenyl)-6-methyl-2-oxo-1,2,3,4-tetrahydropyrimidine-5-carboxylate] | 92.3% |  | 350 ± 3.7 µM |  | 57% |  |  |
| COC(=O)C1=C(C)NC(=O)NC1c1ccc(O)c(Cl)c1 (stereo not drawn) [Compound 28, Methyl 4-(3-chloro-4-hydroxyphenyl)-6-methyl-2-oxo-1,2,3,4-tetrahydropyrimidine-5-carboxylate] | 67.5% |  | 404.6 ± 1 µM |  | 95% |  |  |
| COC(=O)C1=C(C)NC(=O)NC1c1ccc(OC(C)=O)c(OC)c1 (stereo not drawn) [Compound 29, Methyl 4-(4-acetoxy-3-methoxyphenyl)-6-methyl-2-oxo-1,2,3,4-tetrahydropyrimidine-5-carboxylate] | 76% |  | 400.5 ± 0.6 µM |  | 80% |  |  |
| COC(=O)C1=C(C)NC(=O)NC1c1cc(OC)c(O)c(OC)c1 (stereo not drawn) [Compound 30, Methyl 4-(4-hydroxy-3,5-dimethoxyphenyl)-6-methyl-2-oxo-1,2,3,4-tetrahydropyrimidine-5-carboxylate] | 69.6% |  | 396.7 ± 1.5 µM |  | 75% |  |  |
| COC(=O)C1=C(C)NC(=O)NC1c1ccc(C)s1 (stereo not drawn) [Compound 32, Methyl 6-methyl-4-(5-methylthiophen-2-yl)-2-oxo-1,2,3,4-tetrahydropyrimidine-5-carboxylate] | 58.3% |  | 485.7 ± 1.5 µM |  | 85% |  |  |
| COC(=O)C1=C(C)NC(=O)NC1c1ccc(C(F)(F)F)cc1 (stereo not drawn) [Compound 33, Methyl 6-methyl-2-oxo-4-(4-(trifluoromethyl)phenyl)-1,2,3,4-tetrahydropyrimidine-5-carboxylate] | 73.6% | Non-Competitive | 322.6 ± 1.6 µM | 311.4 ± 0.004 µM | 61% | non-cytotoxic; also recorded: non-toxic |  |
| COC(=O)C1=C(C)NC(=O)NC1c1ccc(Cl)cc1 (stereo not drawn) [Compound 34, Methyl 4-(4-chlorophenyl)-6-methyl-2-oxo-1,2,3,4-tetrahydropyrimidine-5-carboxylate] | 66.3% |  | 443.9 ± 0.9 µM |  | 72% |  |  |
| Oc1ncnc2c1ncn2[C@@H]1O[C@H](COC(c2ccccc2)(c2ccccc2)c2ccccc2)[C@@H](O)[C@H]1O [KIN59, 5′-O-tritylinosine] |  |  |  |  |  |  | 44 ± 3 µM |
